# Results taken from patent US20120029187A1, “HALOALKYLSULFONANILIDE DERIVATIVE” (Nissan Chemical Industries, Ltd., priority 2009, published 2012).
# How the values were obtained:
# Format in all cases: in vivo
# beadstraw [1] = experiment: Test Example 4: herbicidal effect in foliage treatment; settings: dose 3.2 g/a, three weeks after application
# Summary of the method: (§1)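 Post-emergence foliar spray of water-diluted emulsifiable concentrate at predetermined doses (g per are), applied to plants 14 days after sowing in sterile diluvial soil (greenhouse, 25 to 30° C). Visual scale rating of effect taken 3 weeks later.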
# posumbu knotweed [2] = experiment: as above; settings: dose 3.2 g/a
# Summary of the method: as §1
# velvetleaf [3] = experiment: as above; settings: dose 3.2 g/a
# Summary of the method: as §1
# large crabgrass [4] = experiment: as above; settings: dose 3.2 g/a
# Summary of the method: as §1
# Italian ryegrass [5] = experiment: as above; settings: dose 3.2 g/a
# Summary of the method: as §1
# water foxtail [6] = experiment: as above; settings: dose 3.2 g/a
# Summary of the method: as §1
# redroot pigweed [7] = experiment: as above; settings: dose 3.2 g/a
# Summary of the method: as §1
# giant foxtail [8] = experiment: as above; settings: dose 3.2 g/a
# Summary of the method: as §1
# barnyardgrass [9] = experiment: as above; settings: dose 3.2 g/a
# Summary of the method: as §1
# common ragweed [10] = experiment: as above; settings: dose 3.2 g/a
# Summary of the method: as §1
# common lambsquater [11] = experiment: as above; settings: dose 3.2 g/a
# Summary of the method: as §1
# common chickweed [12] = experiment: as above; settings: dose 3.2 g/a
# Summary of the method: as §1
# bulrush [13] = experiment: Test Example 2: herbicidal effects during the vegetation period under submerged conditions; settings: treatment during the vegetation period under submerged conditions; dose 2.52 g/a
# Summary of the method: (§2)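 Barnyardgrass, bulrush and ducksalad were co-sown in alluvial soil flooded to 4 cm and grown in a greenhouse at 25 to 30° C. At the 1- or 2-leaf stage, water-diluted emulsifiable concentrates went onto the water surface at set doses (g/a). Herbicidal effect was scored three weeks later on a graded scale.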
# ducksalad [14] = experiment: as above; settings: treatment during the vegetation period under submerged conditions; dose 2.52 g/a
# Summary of the method: as §2
# barnyardgrass [15] = experiment: as above; settings: treatment during the vegetation period under submerged conditions; dose 2.52 g/a
# Summary of the method: as §2
# transplanted rice = experiment: Test Example 1: preemergence treatment under submerged conditions, effect on crop; settings: dose 2.52 g/a
# Summary of the method: (§3)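 Submerged conditions, 4 cm water over alluvial soil. Weeds sown and 2.5-leaf rice transplanted; compound applied preemergence to water surface, doses in g per are. Greenhouse, 25 to 30° C., three weeks, then 0–5 mortality rating.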
# bulrush [16] = experiment: Test Example 1: herbicidal effects in preemergence treatment under submerged conditions; settings: dose 2.52 g/a
# Summary of the method: as §3
# ducksalad [17] = experiment: as above; settings: dose 2.52 g/a
# Summary of the method: as §3
# barnyardgrass [18] = experiment: as above; settings: dose 2.52 g/a
# Summary of the method: as §3
# beadstraw [19] = experiment: Test Example 3: herbicidal effects in soil treatment; settings: dose 3.2 g/a
# Summary of the method: (§4)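 Seeds were sown in sterilized diluvial soil and covered with about 1.5 cm of soil. Compounds, formulated as emulsifiable concentrates and diluted with water, were sprayed evenly over the soil surface at set doses in g/a. Herbicidal effect was scored on a rating scale three weeks later.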
# posumbu knotweed [20] = experiment: as above; settings: dose 3.2 g/a
# Summary of the method: as §4
# velvetleaf [21] = experiment: as above; settings: dose 3.2 g/a
# Summary of the method: as §4
# large crabgrass [22] = experiment: as above; settings: dose 3.2 g/a
# Summary of the method: as §4
# Italian ryegrass [23] = experiment: as above; settings: dose 3.2 g/a
# Summary of the method: as §4
# water foxtail [24] = experiment: as above; settings: dose 3.2 g/a
# Summary of the method: as §4
# redroot pigweed [25] = experiment: as above; settings: dose 3.2 g/a
# Summary of the method: as §4
# giant foxtail [26] = experiment: as above; settings: dose 3.2 g/a
# Summary of the method: as §4
# barnyardgrass [27] = experiment: as above; settings: dose 3.2 g/a
# Summary of the method: as §4
# common ragweed [28] = experiment: as above; settings: dose 3.2 g/a
# Summary of the method: as §4
# common lambsquater [29] = experiment: as above; settings: dose 3.2 g/a
# Summary of the method: as §4
# common chickweed [30] = experiment: as above; settings: dose 3.2 g/a
# Summary of the method: as §4
# [31] = three weeks after the application
SMILES,"B: bulrush, herbicidal effect (evaluation scale 0-5) (bulrush [13])","C: ducksalad, herbicidal effect (evaluation scale 0-5) (ducksalad [14])","A: barnyardgrass, herbicidal effect (evaluation scale 0-5) (barnyardgrass [15])","a: transplanted rice, effect on crop (evaluation scale 0-5) (transplanted rice)","B: bulrush, herbicidal effect (evaluation scale 0-5) (bulrush [16])","C: ducksalad, herbicidal effect (evaluation scale 0-5) (ducksalad [17])","A: barnyardgrass, herbicidal effect (evaluation scale 0-5) (barnyardgrass [18])","O: beadstraw, herbicidal effect (evaluation scale 0-5) (beadstraw [19])","M: posumbu knotweed, herbicidal effect (evaluation scale 0-5) (posumbu knotweed [20])","I: velvetleaf, herbicidal effect (evaluation scale 0-5) (velvetleaf [21])","D: large crabgrass, herbicidal effect (evaluation scale 0-5) (large crabgrass [22])","H: Italian ryegrass, herbicidal effect (evaluation scale 0-5) (Italian ryegrass [23])","G: water foxtail, herbicidal effect (evaluation scale 0-5) (water foxtail [24])","K: redroot pigweed, herbicidal effect (evaluation scale 0-5) (redroot pigweed [25])","E: giant foxtail, herbicidal effect (evaluation scale 0-5) (giant foxtail [26])","A: barnyardgrass, herbicidal effect (evaluation scale 0-5) (barnyardgrass [27])","J: common ragweed, herbicidal effect (evaluation scale 0-5) (common ragweed [28])","L: common lambsquater, herbicidal effect (evaluation scale 0-5) (common lambsquater [29])","N: common chickweed, herbicidal effect (evaluation scale 0-5) (common chickweed [30])",also measured
CC1(C)CC(=O)N(Cc2ccccc2N(C(=O)OCCCl)S(=O)(=O)C(F)(F)F)CO1 [II-28],5 (mortality of 90% or above (nearly complete death)),5 (mortality of 90% or above (nearly complete death)),5 (mortality of 90% or above (nearly complete death)),4 (mortality of at least 70% and less than 90%),5 (mortality of 90% or above (nearly complete death)),5 (mortality of 90% or above (nearly complete death)),5 (mortality of 90% or above (nearly complete death)),5 (mortality of 90% or above (nearly complete death)),5 (mortality of 90% or above (nearly complete death)),4 (mortality of at least 70% and less than 90%),5 (mortality of 90% or above (nearly complete death)),2 (mortality of at least 20% and less than 40%),5 (mortality of 90% or above (nearly complete death)),0 (mortality of less than 5% (almost ineffective)),5 (mortality of 90% or above (nearly complete death)),5 (mortality of 90% or above (nearly complete death)),4 (mortality of at least 70% and less than 90%),0 (mortality of less than 5% (almost ineffective)),4 (mortality of at least 70% and less than 90%),"O: beadstraw, herbicidal effect (beadstraw [1]): 5 (mortality of 90% or above (nearly complete death)); M: posumbu knotweed, herbicidal effect (posumbu knotweed [2]; three weeks after application): 4 (mortality of at least 70% and less than 90%); I: velvetleaf, herbicidal effect (velvetleaf [3]; three weeks after application): 4 (mortality of at least 70% and less than 90%); D: large crabgrass, herbicidal effect (large crabgrass [4]; three weeks after application): 4 (mortality of at least 70% and less than 90%); H: Italian ryegrass, herbicidal effect (Italian ryegrass [5]; three weeks after application): 3 (mortality of at least 40% and less than 70%); G: water foxtail, herbicidal effect (water foxtail [6]; three weeks after application): 5 (mortality of 90% or above (nearly complete death)); K: redroot pigweed, herbicidal effect (redroot pigweed [7]; three weeks after application): 0 (mortality of less than 5% (almost ineffective)); E: giant foxtail, herbicidal effect (giant foxtail [8]; three weeks after application): 4 (mortality of at least 70% and less than 90%); A: barnyardgrass, herbicidal effect (barnyardgrass [9]; three weeks after application): 5 (mortality of 90% or above (nearly complete death)); J: common ragweed, herbicidal effect (common ragweed [10]; three weeks after application): 3 (mortality of at least 40% and less than 70%); L: common lambsquater, herbicidal effect (common lambsquater [11]; three weeks after application): 1 (mortality of at least 5% and less than 20%); N: common chickweed, herbicidal effect (common chickweed [12]; three weeks after application): 4 (mortality of at least 70% and less than 90%)"
CCOC(=O)N(c1ccccc1CN1C(=O)CC(C)(C)OC1C)S(=O)(=O)C(F)(F)F (stereo not shown) [II-74],5 (mortality of 90% or above (nearly complete death)),5 (mortality of 90% or above (nearly complete death)),5 (mortality of 90% or above (nearly complete death)),3 (mortality of at least 40% and less than 70%),5 (mortality of 90% or above (nearly complete death)),5 (mortality of 90% or above (nearly complete death)),5 (mortality of 90% or above (nearly complete death)),4 (mortality of at least 70% and less than 90%),5 (mortality of 90% or above (nearly complete death)),5 (mortality of 90% or above (nearly complete death)),5 (mortality of 90% or above (nearly complete death)),4 (mortality of at least 70% and less than 90%),5 (mortality of 90% or above (nearly complete death)),0 (mortality of less than 5% (almost ineffective)),5 (mortality of 90% or above (nearly complete death)),5 (mortality of 90% or above (nearly complete death)),2 (mortality of at least 20% and less than 40%),1 (mortality of at least 5% and less than 20%),3 (mortality of at least 40% and less than 70%),"M: posumbu knotweed, herbicidal effect (posumbu knotweed [2]; [31]): 4 (mortality of at least 70% and less than 90%); I: velvetleaf, herbicidal effect (velvetleaf [3]; [31]): 5 (mortality of 90% or above (nearly complete death)); D: large crabgrass, herbicidal effect (large crabgrass [4]; [31]): 5 (mortality of 90% or above (nearly complete death)); H: Italian ryegrass, herbicidal effect (Italian ryegrass [5]; [31]): 5 (mortality of 90% or above (nearly complete death)); G: water foxtail, herbicidal effect (water foxtail [6]; [31]): 5 (mortality of 90% or above (nearly complete death)); K: redroot pigweed, herbicidal effect (redroot pigweed [7]; [31]): 0 (mortality of less than 5% (almost ineffective)); E: giant foxtail, herbicidal effect (giant foxtail [8]; [31]): 3 (mortality of at least 40% and less than 70%); A: barnyardgrass, herbicidal effect (barnyardgrass [9]; [31]): 5 (mortality of 90% or above (nearly complete death)); J: common ragweed, herbicidal effect (common ragweed [10]; [31]): 3 (mortality of at least 40% and less than 70%); L: common lambsquater, herbicidal effect (common lambsquater [11]; [31]): 3 (mortality of at least 40% and less than 70%); N: common chickweed, herbicidal effect (common chickweed [12]; [31]): 4 (mortality of at least 70% and less than 90%)"
